Data taken from PubChem BioAssay AID179 (DTP/NCI, 2004).
The source made the active and inactive calls.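 Rule for the calls: active = compounds giving half or more protection of infected cells from virus-caused growth loss, again on retest; inactive = the rest.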

Tested on: CEM cells HIV-1 protection, formazan growth assay
Experiment: NCI AIDS Antiviral Assay
Details: for IC50: measured here: growth of uninfected CEM cells
Method in brief: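 Protection of CEM cells against HIV-1 was scored from cell growth (soluble formazan) across five concentrations, with parallel uninfected cells. Lack of protection may reflect toxicity.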

SMILES | outcome | EC50 [µM] | IC50 [µM]
COc1cc(CC(C(=O)O)C(=O)O)c(OC)cc1CC(C(=O)O)C(=O)O | inactive | – | –
Cc1ccc(Nc2nc3c(=O)n(C)c(=O)n(C)c3nc2Nc2ccc(C)cc2)cc1 | – | > 200 | 2.04
C/C(CC(=O)Nc1ccc(Cl)cc1)=N\NC(N)=S | – | > 871 | 123
CC(C)c1cccc(C(C)C)c1NC1=CC(=O)C(=O)c2ccccc21 | – | > 30.2 | > 30.2
CCOC(=O)/C(=C/c1cccc2ccccc12)P(=O)(OCC)OCC | – | > 257 | 17
C[N+](C)(C)CCNP(=O)(Oc1ccccc1)c1ccccc1 (stereo not given) | – | > 562 | > 562
COc1nc2ncn(C(C)=O)c2c(=O)n1C | inactive | – | –
COc1c2ccoc2cc2oc(=O)ccc12 | – | > 58.9 | > 58.9
COC(=O)C1=C(N2CCCC2)C2c3ccccc3SC12C(=O)OC (stereo not given) | – | 5.75 | 55
COc1cccc(NC(=O)c2c(SC)c(C#N)c(=O)n(N)c2N)c1 | – | > 200 | 107
CCOC(=O)C1CN(C2CC2)CCC1=O (stereo not given) | – | > 200 | > 200
CC(=N\N)/C(C)=N/N=C(C)/C(C)=N/N=C(C)/C(C)=N/N=C(C)/C(C)=N/N | – | > 200 | 15.8
CCOC(=O)c1c(C)[nH]c(=S)c(C#N)c1-c1ccco1 | – | > 200 | 81.3
CCOC(=O)/C(=C/c1ccc(OC)cc1)P(=O)(OCC)OCC | – | > 380 | 20.4
COc1nc(C)nc2c1ncn2Cc1ccccc1 | – | > 200 | > 200
O=c1ccc2ccccc2c2ccccc12 | – | > 117 | 1.66
CN1C(=O)C(=O)N2c3ccc(Cl)cc3C3(c4ccccc4)N=CC12O3 (stereo not given) | – | > 36.3 | 5.5
Cc1cccc(SCc2nc3ccccc3c(C)[n+]2[O-])c1 | – | 13.5 | 52.5
Cc1c(Cl)cccc1N=NC(=O)NNc1cccc(Cl)c1C | – | > 200 | 33.1
CC1(CCCO)CCCCCCCCCC(C)(CCCO)C1=O (stereo not given) | – | > 200 | 115
O=c1c(SSc2coc3ccccc3c2=O)coc2ccccc12 | – | > 200 | 5.13
COc1cc2c3c(c1OC)C(=O)C=C3N(S(=O)(=O)c1ccc(C)cc1)CC2 | inactive | – | –
COCCN1C(=O)C2c3[nH]c4ccccc4c3C3CCC(C(C)(C)C)CC3C2C1=O (stereo not given) | – | > 200 | 39.8

SMILES | outcome | EC50 [µM] | IC50 [µM]
O=C1CCC(C2(O)c3ccccc3-c3ccccc32)C(=O)N1 (stereo not given) | – | > 123 | > 123
CC(C)=CCCc1c(C)ccc2c1C(=O)C(=O)C(C(C)C)=C2 | – | > 60.3 | 4.47
CC(=O)NC1C(OCC(=O)N2CCCC2C(=O)NC(CCC(=O)NCCCCCNc2ccc([N+](=O)[O-])c3[nH]c4ccccc4c(=O)c23)C(N)=O)C(O)C(CO)OC1(C)OCc1ccccc1 (stereo not given) | – | > 50.1 | 1.02
Nc1ncnc2c1nc(Br)n2C(C=O)OC(C=O)CO (stereo not given) | inactive | – | –
O=C(O)/C=C\C(=O)NNC(=O)/C=C\C(=O)O | – | > 1100 | > 1100
CC1=NN(C(=O)c2ccc(Cl)cc2)C(=O)/C1=C/c1ccc(Cl)cc1 | – | > 10.5 | > 10.5
COc1ccc(/C(CCl)=C(\Nc2ccccc2)c2ccc(OC)c(OC)c2)cc1OC | – | > 200 | > 200
NC(=O)C1=CC2C3C=CC2(O)C(=O)OC3O1 (stereo not given) | – | > 1120 | 1.17
O=C1c2cccc3cc([N+](=O)[O-])cc(c23)C(=O)N1O | – | > 200 | 12
CCOC1SC(SC)=NN1C(=O)C(OC(C)=O)C(OC(C)=O)C(OC(C)=O)C(OC(C)=O)C(=O)N1N=C(SC)SC1OCC (stereo not given) | inactive | – | –
O=C(O)c1ccc(CSc2ccc(Cl)cc2)c([N+](=O)[O-])c1 | – | > 209 | 95.5
O=c1[nH]c(=O)n(C2CC(O)C(CO)O2)cc1OCCc1ccccc1 (stereo not given) | – | > 200 | > 200
CC(C)C1CNC(=O)C2(CCCO2)CNC(C(C)C)CNC(=O)C2(CCCO2)CN1 (stereo not given) | – | > 295 | > 295
COc1cc(C)c2c(=O)c3ccccc3n(C)c2c1 | – | 2.82 | 30.2
CCOC(=O)c1c(NC(=O)c2ccc(Br)cc2)sc2c1CCCC2 | – | > 200 | > 200
c1ccc2c(c1)C1CCC2c2ccccc21 | – | > 200 | > 200
COc1ccc(Cl)c(CCCCCCCC(=O)O)c1 | – | > 200 | > 200
NC(=S)N/N=C1\CCc2ccccc2C1 | – | > 575 | 15.8
COc1cc(-c2cccs2)sc1-c1cccs1 | – | > 9.77 | > 9.77
Nc1nc(N)nc(Nc2ccc([As](=O)(O)O)cc2)n1 | – | > 21.9 | > 21.9
COc1ccccc1/C=C/c1ccc2ccccc2n1 | – | > 200 | 38
CCOC(=O)Nc1cc(NC(/C=N/NC(C)=O)C(=O)OCC)c(OC)cc1NC(C)=O (stereo not given) | – | > 200 | > 200
